Measurements as given in the METLIN SMRT retention time set (Domingo-Almenara et al. 2019).

Experiment: gradient 5% acetonitrile 3 min, to 50% in 2 min, to 85% in 15 min, held 3 min, 100 µL/min
Settings: column: Zorbax Extend-C18 2.1 x 50 mm; eluents: water / acetonitrile, 0.1% formic acid
Summary of the method: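 Pure standards were analyzed in mixtures of ~100 molecules using HPLC coupled to a quadrupole time-of-flight mass spectrometer, in both positive and negative ionization mode. Separation used a Zorbax Extend-C18 column (2.1 × 50 mm, 1.8 μm) at 100 μL/min, with water and acetonitrile each containing 0.1% formic acid. Dead and dwell volumes were 40 μL and 900 μL, and data were collected over 3 months. Retention time was read from computationally picked adduct peaks, each inspected manually.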
Compound `Cc1noc(-c2nc(-c3ccc(Cl)cc3)no2)n1` has an RP-LC retention time of 1070 s. With `O=C(Nc1cccc(Cl)c1Cl)C1(c2ccc(F)cc2)CC1` the RP-LC retention time was 1280 s. In the case of `CCCN1C(=O)CN(S(=O)(=O)c2ccccc2)CC1(C)C(=O)NCc1ccccc1` (stereo unspecified), the RP-LC retention time is reported as 809 s. For `O=C(Cc1ccc(S(=O)(=O)N2CCN(c3ccccn3)CC2)s1)N1CCOCC1`, the RP-LC retention time was 1260 s. Work on `Cc1nc2cccnc2n1CCN1CCN(C(=O)Nc2ccc(Br)cc2)CC1` yielded an RP-LC retention time of 619 s. Compound `COCCNC(=O)c1nn(-c2ccc(Cl)cc2)c2c(=O)n(C)cnc12` has an RP-LC retention time of 709 s. With `CN1C(=O)c2cccnc2Sc2cc(NC(=O)c3cccc(Br)c3)ccc21` the RP-LC retention time was 876 s. `Cc1ccc(C)c(N2CCN(C(=O)C3CCCN(c4nc5ccccc5n(C)c4=O)C3)CC2)c1` (stereo unspecified) gave an RP-LC retention time of 1280 s. In the case of `COc1ccc(S(=O)(=O)Nc2nc(C(=O)Nc3cccc(Cl)c3)cs2)cc1`, the RP-LC retention time is reported as 844 s. For `CCN(CC)S(=O)(=O)c1ccc2c(c1)N(CC(=O)N(C)Cc1ccccc1)C(=O)C1CCCCN21` (stereo unspecified), the RP-LC retention time was 895 s. With `COc1cccc(S(=O)(=O)N2CCc3c(c(-c4nnc(-c5ccc(F)cc5)o4)nn3C)C2)c1` the RP-LC retention time was 942 s. `O=C(NCC1CCCCC1)C1(CCO)CCN(c2ncccn2)C1` (stereo unspecified) showed an RP-LC retention time of 629 s. In the case of `CCOc1ccccc1-n1ccn(Cc2nc(-c3cccc(F)c3)no2)c(=O)c1=O`, the RP-LC retention time is reported as 876 s. In the case of `O=C(Nc1ccc2c(c1)OCCO2)C(=O)c1cn(CC(=O)N2CCCCC2)c2ccccc12`, the RP-LC retention time is reported as 1010 s. Compound `CCOc1ccccc1C(=O)NC1CCN(C(=O)c2cn(-c3ccc(C)c(C)c3)nn2)CC1` has an RP-LC retention time of 873 s. `Cc1cc2nn(CC(=O)Nc3ccc(F)cc3Cl)c(=O)n2c(-c2ccccc2)n1` showed an RP-LC retention time of 761 s. For `Cc1c(CCN)ccc2c1[nH]c1ccccc12`, the RP-LC retention time was 697 s. `COc1cccc(Nc2cc(C(=O)N3CCSCC3)nc3c(OC)cccc23)c1` gave an RP-LC retention time of 679 s. With `O=C(c1csc(C(=O)N2CCCC2)n1)N1CCSCC1` the RP-LC retention time was 700 s. `Cc1noc(-c2nn(C)c3c2CN(C(=O)C2CCCO2)CC3)n1` (stereo unspecified) showed an RP-LC retention time of 600 s. Work on `O=C(C1CCOC1)N1CCCn2nc(-c3cccs3)cc2C1` (stereo unspecified) yielded an RP-LC retention time of 678 s. `Cc1sc2cc(C(=O)NC3CCCCC3)[nH]c2c1CN1CCOCC1` gave an RP-LC retention time of 671 s. `Cc1cc(Cl)ccc1NC(=O)C1CCN(S(=O)(=O)c2c(C)nn(-c3ccccc3)c2C)CC1` gave an RP-LC retention time of 1020 s. Compound `O=C(NCc1cccs1)C1CN(C(=O)c2cccs2)CC12CCCCC2` (stereo unspecified) has an RP-LC retention time of 856 s. With `CN(C)c1ccc(-c2nc3cnccn3c2NC2CCCC2)cc1` the RP-LC retention time was 764 s. In the case of `COc1ccc(-c2noc(C3CCCN3C(=O)c3ccc(Cl)cc3OC)n2)cc1OC` (stereo unspecified), the RP-LC retention time is reported as 934 s. Work on `Cc1cccc2c(=O)n(C3CCN(S(=O)(=O)c4ccc(F)c(F)c4)CC3)cnc12` yielded an RP-LC retention time of 989 s. For `CCCCNC(=O)Cn1c(C(=O)OC)cc2oc3ccccc3c21`, the RP-LC retention time was 959 s. Work on `Clc1ccccc1-c1csc(Cc2nc(-c3ccc4c(c3)OCO4)no2)n1` yielded an RP-LC retention time of 1200 s. Work on `O=C(c1csc(N2CCN(c3cccc(Cl)c3)CC2)n1)N1CCOCC1` yielded an RP-LC retention time of 970 s. `CCn1cnc2ccc(-c3noc(-c4ccc(C)cc4)n3)cc21` gave an RP-LC retention time of 832 s. For `O=C(CSc1ccncc1)NCc1cc(-c2ccco2)on1`, the RP-LC retention time was 552 s. In the case of `COc1ccccc1NC(=O)Cn1ncc2c(N3CCN(c4ccccn4)CC3)ncnc21`, the RP-LC retention time is reported as 600 s. Compound `CCC(C(=O)NCC(=O)Nc1nc2ccccc2[nH]1)c1ccccc1` (stereo unspecified) has an RP-LC retention time of 654 s. `O=S(=O)(NC1CCCN(c2cc(-c3ccncc3)[nH]n2)C1)c1ccc(Cl)cc1` (stereo unspecified) gave an RP-LC retention time of 579 s. `O=C(CN1C(=O)c2ccccc2C1=O)Oc1ccc2nc(N3CCCCC3)sc2c1` showed an RP-LC retention time of 923 s. `O=C(Nc1cnc(N2CCCCC2)nc1)c1ccc(F)cc1F` showed an RP-LC retention time of 934 s. `COCCN1CC2(CCN(S(=O)(=O)c3cccc(Cl)c3)CC2)C1c1ccncc1` (stereo unspecified) gave an RP-LC retention time of 631 s. For `COc1ccccc1NC(=O)N1CCN(c2ccc(-c3noc(C)n3)cn2)CC1`, the RP-LC retention time was 724 s. `CCc1nc2c(c(=O)n1CC(=O)NCc1cccc(C)c1)CN(Cc1ccccc1)CC2` showed an RP-LC retention time of 661 s. With `Cc1cc(F)ccc1NC(=O)c1c(O)c2cccnc2n(-c2ccccc2)c1=O` the RP-LC retention time was 1280 s. Work on `COc1cc(C(=O)C(=O)c2ccc(O)c(OC)c2)ccc1O` yielded an RP-LC retention time of 758 s. In the case of `COc1ccc(C)cc1NC(=O)Cn1nc2nc(N3CCCC(C)C3)ccn2c1=O` (stereo unspecified), the RP-LC retention time is reported as 841 s. Compound `CS(=O)(=O)N1CCC(C(=O)Nc2nnc(SCc3cc(F)ccc3F)s2)CC1` has an RP-LC retention time of 762 s. `CC(C)Cc1csc(-c2csc(S(=O)(=O)NCc3ccccc3F)c2)n1` showed an RP-LC retention time of 1140 s. Compound `COc1ccc(Br)c2c1-c1nc(NC(=O)c3ccc(F)cc3)sc1C2` has an RP-LC retention time of 1170 s. Work on `COc1ccc(CNC(=O)c2csc(-c3cn(C)c4ncccc34)n2)c(OC)c1` yielded an RP-LC retention time of 924 s. `CC(=O)c1cccc(NC(=O)c2cccc(Br)c2)c1` showed an RP-LC retention time of 840 s. For `Cc1nnc(N2CCCC(C(=O)NCc3cccs3)C2)c2nn(-c3ccccc3)c(C)c12` (stereo unspecified), the RP-LC retention time was 702 s. With `CCCOc1nc2ccccc2nc1N1CCCC(C(=O)NCc2ccc(Cl)cc2)C1` (stereo unspecified) the RP-LC retention time was 1270 s. In the case of `Cc1ccc(NS(=O)(=O)c2cc3c(=O)n(C)ncn3c2)cc1`, the RP-LC retention time is reported as 821 s. For `Clc1cc(Cl)cc(-c2ccc(CNCc3ccncc3)o2)c1`, the RP-LC retention time was 649 s. For `Cc1ccccc1-c1noc(Cn2c(=O)n(Cc3cccc(Cl)c3)c(=O)c3sccc32)n1`, the RP-LC retention time was 819 s. `CSc1ccc(-c2nc3ccccn3c2Nc2ccc(C)cc2)cc1` showed an RP-LC retention time of 781 s. In the case of `Cn1nc(-c2nnc(-c3ccccc3Cl)o2)c2c1CCN(C(=O)c1ccco1)C2`, the RP-LC retention time is reported as 784 s. In the case of `Cc1cc2nn(CC(=O)Nc3cccc(Cl)c3)c(=O)n2c(N2CCCC2)n1`, the RP-LC retention time is reported as 813 s. In the case of `CCCc1noc(-c2ccc(-n3ncc(C(=O)NC(C)C)c3C)nc2)n1`, the RP-LC retention time is reported as 970 s. Compound `CC(NC(=O)Cc1cn(C)c2ncccc12)c1ccc(F)cc1` (stereo unspecified) has an RP-LC retention time of 695 s. Compound `O=C(Nc1cnc(-c2ccc(F)cc2)nc1)c1ccccc1` has an RP-LC retention time of 961 s. `COc1ccc(S(=O)(=O)Nc2cc(C)ccn2)cc1` gave an RP-LC retention time of 616 s. Work on `CC(C)COc1cc(=O)n2c(c1C(=O)NCCCN1CCOCC1)CCCCC2` yielded an RP-LC retention time of 570 s. For `CN1CCC(OC2CCN(C(=O)c3ccc(Br)o3)CC2)CC1`, the RP-LC retention time was 597 s. For `CCCC(=O)Nc1nc(-c2ccc(Br)s2)cs1`, the RP-LC retention time was 993 s. With `CC(C)(C)CC(=O)NC1CCN(c2ccc(F)cc2)C1=O` (stereo unspecified) the RP-LC retention time was 755 s. In the case of `Cc1ccc(CNC(=O)Nc2cc3c(cc2N2CCOCC2)n(C)c(=O)n3C)cc1`, the RP-LC retention time is reported as 750 s. Compound `Fc1cccc(CN2CCO[C@@H](COc3ccccn3)[C@@H]2c2ccccc2)c1` has an RP-LC retention time of 898 s. With `C/C=C1\NC(=O)[C@H]2CSSCC/C=C/[C@H](CC(=O)N[C@H](C(C)C)C(=O)N2)OC(=O)C(C(C)C)NC1=O` (stereo partly specified) the RP-LC retention time was 808 s. `Cn1c(=O)c2nscc2n(CC(=O)NC2CCCCC2)c1=O` gave an RP-LC retention time of 664 s. Work on `CCCn1cc(C2=CCN(S(=O)(=O)c3cccc(C(F)(F)F)c3)CC2)c2cccnc21` yielded an RP-LC retention time of 1180 s. `O=C(Nc1ccccc1F)N1CCCC1c1nncn1-c1ccccc1` (stereo unspecified) showed an RP-LC retention time of 683 s. For `CC(O)(c1ccccc1)C(c1ccccc1)C1CCCCN1` (stereo unspecified), the RP-LC retention time was 747 s. `Clc1ccc2ncnc(NCc3ccc4c(c3)OCO4)c2c1` gave an RP-LC retention time of 694 s. Work on `COc1ccc(NS(=O)(=O)c2cc3n(c2)CCCN(C(C)C)C3=O)cc1Cl` yielded an RP-LC retention time of 773 s. Compound `Cc1nnc(-c2nnc(NC(C)C)c3ccccc23)o1` has an RP-LC retention time of 602 s. Compound `Cc1cn2c(CCC(=O)NCCn3nc(-c4ccco4)ccc3=O)csc2n1` has an RP-LC retention time of 539 s. `O=c1c2scc(-c3ccc(Br)cc3)c2ncn1Cc1ccc(F)cc1` showed an RP-LC retention time of 1180 s. With `CCc1noc(C2CCCCN2C(=O)CCc2c[nH]c3ccccc23)n1` (stereo unspecified) the RP-LC retention time was 888 s. For `CN(C)C(=O)c1csc(S(=O)(=O)N2CCC(C(=O)NC3CC3)CC2)c1`, the RP-LC retention time was 626 s. With `Nc1ncnc(Nc2cccc3c2CCCC3)c1[N+](=O)[O-]` the RP-LC retention time was 838 s. `Cc1cc(C(=O)NC2CC2)c2cccc(Cl)c2n1` gave an RP-LC retention time of 716 s. `COCCN1C(=O)CCc2cc(NS(=O)(=O)c3ccc(C)c(F)c3)ccc21` showed an RP-LC retention time of 802 s. `CCOC(=O)c1ccsc1NC(=O)c1cc(C)nn1CC` showed an RP-LC retention time of 1080 s. `O=S(=O)(Nc1cccn2ncnc12)c1ccc(Cl)cc1` gave an RP-LC retention time of 770 s. In the case of `CCCn1ccc2oc(C)c(C(=O)NC(C)c3ccc(OCC)cc3)c2c1=O` (stereo unspecified), the RP-LC retention time is reported as 1070 s. In the case of `COc1cccc(N2C=C(C(=O)N3CCCC3)S(=O)(=O)c3ccccc32)c1`, the RP-LC retention time is reported as 770 s. `CC(=O)N1CCCc2cc(S(=O)(=O)CCC(=O)N3CCN(c4cc(C)ccc4C)CC3)ccc21` gave an RP-LC retention time of 936 s. For `Cc1nc2scc(CC(=O)O)n2c(=O)c1C`, the RP-LC retention time was 592 s. Compound `COCCN(C)C(=O)c1cn(C2CN(S(=O)(=O)c3c(C)noc3C)C2)nn1` has an RP-LC retention time of 703 s. With `Cc1ccc(-n2cc3c(c(C(=O)NC4CC4)c2=O)CC(C)(C)CC3=O)cc1` the RP-LC retention time was 867 s. In the case of `COc1ccc(-c2cc(N3CCC(NC(=O)c4cc(OC)c(OC)c(OC)c4)C3)n[nH]2)cc1` (stereo unspecified), the RP-LC retention time is reported as 688 s. For `Cc1ccccc1Nc1c(-c2ccc(N(C)C)cc2)nc2ncccn12`, the RP-LC retention time was 725 s.
